Experimental data reported in patent US20110009381A1, “SOLUBILIZED THIAZOLOPYRIDINES” (Sirtis Pharmaceuticals, Inc., priority 2007, published 2011).

Target: T1, SIRT1 (Homo sapiens, UniProt Q96EB6)
T1 sequence (Q96EB6 1-747): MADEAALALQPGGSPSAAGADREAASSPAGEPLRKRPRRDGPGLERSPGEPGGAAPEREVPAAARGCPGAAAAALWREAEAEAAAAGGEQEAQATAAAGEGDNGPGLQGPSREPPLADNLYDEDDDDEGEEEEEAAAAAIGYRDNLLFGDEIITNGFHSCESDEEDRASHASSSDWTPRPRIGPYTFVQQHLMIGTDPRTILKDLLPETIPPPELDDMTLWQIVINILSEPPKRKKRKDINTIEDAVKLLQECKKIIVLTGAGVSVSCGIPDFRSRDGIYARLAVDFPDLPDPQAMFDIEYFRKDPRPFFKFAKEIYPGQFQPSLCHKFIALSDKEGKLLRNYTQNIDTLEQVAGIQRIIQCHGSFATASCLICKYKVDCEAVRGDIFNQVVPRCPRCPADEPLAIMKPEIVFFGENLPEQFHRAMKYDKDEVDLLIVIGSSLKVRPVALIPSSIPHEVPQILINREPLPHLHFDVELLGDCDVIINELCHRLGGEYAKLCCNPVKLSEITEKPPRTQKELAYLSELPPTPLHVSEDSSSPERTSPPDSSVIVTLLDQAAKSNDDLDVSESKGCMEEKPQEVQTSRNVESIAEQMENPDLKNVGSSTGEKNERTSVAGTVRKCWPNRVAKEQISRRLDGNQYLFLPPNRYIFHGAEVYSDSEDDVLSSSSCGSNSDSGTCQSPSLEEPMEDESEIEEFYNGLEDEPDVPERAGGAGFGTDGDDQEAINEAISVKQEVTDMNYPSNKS
Assay: Mass spectrometry based assay to identify modulators of SIRT1 activity (deacetylation of p53-based acetylated peptide substrate)
Assay type: biochemical
Settings: 10 nM SIRT1, 0.5 μM peptide substrate, 120 μM βNAD+, 25 minutes at 25° C.
Outline: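 Activation measured on His-tagged SIRT1 (10 nM, E. coli-expressed) deacetylating a 0.5 μM p53-derived acetyl-peptide with 120 μM βNAD^+ for 25 min at 25 °C, pH 8 Tris-acetate. After formic acid stop, mass spectrometry quantified acetylated versus deacetylated peptide, referenced to DMSO and nicotinamide controls. Reported as EC1.5 and maximum fold activation.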

**Q.** For `CN(C)CCOc1cc(C(=O)Nc2ccccc2-c2nc3cccnc3s2)nc(-c2ccccc2)n1` [Compound 94], which “FOLD ACT. (percent maximum fold activation)” value is on record?
**A.** Its value is “A (Fold activation≧300%)”.

**Q.** `O=C(Nc1ccccc1-c1nc2cccnc2s1)c1cc(N[C@@H]2CCCNC2)nc(-c2ccccc2)n1` [Compound 95] was tested. Which “FOLD ACT. (percent maximum fold activation)” value did it give?
**A.** The value was “A (Fold activation≧300%)”.

**Q.** Which “FOLD ACT. (percent maximum fold activation)” value does the source give for `CC1(C)OCC(CNc2cc(C(=O)Nc3ccccc3-c3nc4cccnc4s3)nc(-c3ccccc3)n2)O1` (stereo not shown) [Compound 96] here?
**A.** Its value is “A (Fold activation≧300%)”.

**Q.** With `CC1(C)OC[C@H](COc2cc(C(=O)Nc3ccccc3-c3nc4cccnc4s3)nc(-c3ccccc3)n2)O1` [Compound 97] as the compound, how does the “FOLD ACT. (percent maximum fold activation)” value read?
**A.** Its value is “B (Fold Activation≧150% and <300%)”.

**Q.** With `CN1CCC(Nc2cc(C(=O)Nc3ccccc3-c3nc4cccnc4s3)nc(-c3ccccc3)n2)CC1` [Compound 99] as the compound, how does the “FOLD ACT. (percent maximum fold activation)” value read?
**A.** The value was “A (Fold activation≧300%)”.

**Q.** `CCN1CCC(Nc2cc(C(=O)Nc3ccccc3-c3nc4cccnc4s3)nc(-c3ccccc3)n2)CC1` [Compound 100] was tested. Which “FOLD ACT. (percent maximum fold activation)” value did it give?
**A.** The value was “A (Fold activation≧300%)”.

**Q.** For `CCCN1CCC(Nc2cc(C(=O)Nc3ccccc3-c3nc4cccnc4s3)nc(-c3ccccc3)n2)CC1` [Compound 101], which “FOLD ACT. (percent maximum fold activation)” value is on record?
**A.** Its value is “A (Fold activation≧300%)”.

**Q.** Which “FOLD ACT. (percent maximum fold activation)” value does the source give for `O=C(Nc1ccccc1-c1nc2cccnc2s1)c1cc(OCCCO)nc(-c2ccccc2)n1` [Compound 102] here?
**A.** Its value is “B (Fold Activation≧150% and <300%)”.

**Q.** Which “FOLD ACT. (percent maximum fold activation)” value does the source give for `O=C(Nc1ccccc1-c1nc2cccnc2s1)c1cc(OCCCCO)nc(-c2ccccc2)n1` [Compound 103] here?
**A.** The value was “B (Fold Activation≧150% and <300%)”.

**Q.** With `O=C(Nc1ccccc1-c1nc2cccnc2s1)c1cc(NC2CCNC2)nc(-c2ccccc2)n1` (stereo not shown) [Compound 104] as the compound, how does the “FOLD ACT. (percent maximum fold activation)” value read?
**A.** Its value is “A (Fold activation≧300%)”.

**Q.** With `O=C(Nc1ccccc1-c1nc2cccnc2s1)c1cc(NC[C@H](O)CO)nc(-c2ccccc2)n1` [Compound 105] as the compound, how does the “FOLD ACT. (percent maximum fold activation)” value read?
**A.** Its value is “A (Fold activation≧300%)”.

**Q.** For `O=C(Nc1ccccc1-c1nc2cccnc2s1)c1cc(NC[C@@H](O)CO)nc(-c2ccccc2)n1` [Compound 106], which “FOLD ACT. (percent maximum fold activation)” value is on record?
**A.** Its value is “A (Fold activation≧300%)”.

**Q.** `O=C(Nc1ccccc1-c1nc2cccnc2s1)c1cc(OC[C@H](O)CO)nc(-c2ccccc2)n1` [Compound 107] was tested. Which “FOLD ACT. (percent maximum fold activation)” value did it give?
**A.** The value was “B (Fold Activation≧150% and <300%)”.

**Q.** `O=C(Nc1ccccc1-c1nc2cccnc2s1)c1cc(OC[C@@H](O)CO)nc(-c2ccccc2)n1` [Compound 108] was tested. Which “FOLD ACT. (percent maximum fold activation)” value did it give?
**A.** The value was “B (Fold Activation≧150% and <300%)”.

**Q.** `O=C(Nc1ccccc1-c1nc2cccnc2s1)c1cc(NCC2CCCNC2)nc(-c2ccccc2)n1` (stereo not shown) [Compound 109] was tested. Which “FOLD ACT. (percent maximum fold activation)” value did it give?
**A.** The value was “A (Fold activation≧300%)”.

**Q.** With `CN(C)CCNc1cc(C(=O)Nc2ccccc2-c2nc3cccnc3s2)nc(-c2ccccc2)c1` [Compound 110] as the compound, how does the “FOLD ACT. (percent maximum fold activation)” value read?
**A.** The value was “A (Fold activation≧300%)”.

**Q.** How did the “FOLD ACT. (percent maximum fold activation)” value turn out when `Cc1ccc(-c2nc(NCCN(C)C)cc(C(=O)Nc3ccccc3-c3nc4cccnc4s3)n2)cc1` [Compound 111] was run?
**A.** Its value is “A (Fold activation≧300%)”.

**Q.** For `Cc1cccc(-c2nc(NCCN(C)C)cc(C(=O)Nc3ccccc3-c3nc4cccnc4s3)n2)c1` [Compound 112], which “FOLD ACT. (percent maximum fold activation)” value is on record?
**A.** Its value is “A (Fold activation≧300%)”.

**Q.** For `O=C(Nc1ccccc1-c1nc2cccnc2s1)c1cc(NC2CCN(Cc3ccccc3)CC2)nc(-c2ccccc2)n1` [Compound 113], which “FOLD ACT. (percent maximum fold activation)” value is on record?
**A.** The value was “B (Fold Activation≧150% and <300%)”.

**Q.** Which “FOLD ACT. (percent maximum fold activation)” value does the source give for `CC(C)N1CCC(Nc2cc(C(=O)Nc3ccccc3-c3nc4cccnc4s3)nc(-c3ccccc3)n2)CC1` [Compound 114] here?
**A.** The value was “A (Fold activation≧300%)”.

Same assay, conditions: SIRT1 activation; 10 nM SIRT1, 0.5 μM peptide substrate, 120 μM βNAD+, 25 minutes at 25° C.

**Q.** Which EC1.5 does the source give for `CN(C)CCOc1cc(C(=O)Nc2ccccc2-c2nc3cccnc3s2)nc(-c2ccccc2)n1` [Compound 94] here?
**A.** The EC1.5 was “A (EC1.5≧250 nM and ≦1 uM)”.

**Q.** For `O=C(Nc1ccccc1-c1nc2cccnc2s1)c1cc(N[C@@H]2CCCNC2)nc(-c2ccccc2)n1` [Compound 95], which EC1.5 is on record?
**A.** The EC1.5 was “A′ (EC1.5<250 nM)”.

**Q.** For `CC1(C)OCC(CNc2cc(C(=O)Nc3ccccc3-c3nc4cccnc4s3)nc(-c3ccccc3)n2)O1` (stereo not shown) [Compound 96], which EC1.5 is on record?
**A.** Its EC1.5 is “A (EC1.5≧250 nM and ≦1 uM)”.

**Q.** With `CC1(C)OC[C@H](COc2cc(C(=O)Nc3ccccc3-c3nc4cccnc4s3)nc(-c3ccccc3)n2)O1` [Compound 97] as the compound, how does the EC1.5 read?
**A.** Its EC1.5 is “C (EC1.5>10 uM)”.

**Q.** `CN1CCC(Nc2cc(C(=O)Nc3ccccc3-c3nc4cccnc4s3)nc(-c3ccccc3)n2)CC1` [Compound 99] was tested. Which EC1.5 did it give?
**A.** The EC1.5 was “A′ (EC1.5<250 nM)”.

**Q.** How did the EC1.5 turn out when `CCN1CCC(Nc2cc(C(=O)Nc3ccccc3-c3nc4cccnc4s3)nc(-c3ccccc3)n2)CC1` [Compound 100] was run?
**A.** The EC1.5 was “A′ (EC1.5<250 nM)”.

**Q.** For `CCCN1CCC(Nc2cc(C(=O)Nc3ccccc3-c3nc4cccnc4s3)nc(-c3ccccc3)n2)CC1` [Compound 101], which EC1.5 is on record?
**A.** Its EC1.5 is “A′ (EC1.5<250 nM)”.

**Q.** How did the EC1.5 turn out when `O=C(Nc1ccccc1-c1nc2cccnc2s1)c1cc(OCCCO)nc(-c2ccccc2)n1` [Compound 102] was run?
**A.** Its EC1.5 is “A (EC1.5≧250 nM and ≦1 uM)”.

**Q.** `O=C(Nc1ccccc1-c1nc2cccnc2s1)c1cc(OCCCCO)nc(-c2ccccc2)n1` [Compound 103] was tested. Which EC1.5 did it give?
**A.** Its EC1.5 is “C (EC1.5>10 uM)”.

**Q.** How did the EC1.5 turn out when `O=C(Nc1ccccc1-c1nc2cccnc2s1)c1cc(NC2CCNC2)nc(-c2ccccc2)n1` (stereo not shown) [Compound 104] was run?
**A.** Its EC1.5 is “A′ (EC1.5<250 nM)”.

**Q.** With `O=C(Nc1ccccc1-c1nc2cccnc2s1)c1cc(NC[C@H](O)CO)nc(-c2ccccc2)n1` [Compound 105] as the compound, how does the EC1.5 read?
**A.** Its EC1.5 is “A′ (EC1.5<250 nM)”.

**Q.** How did the EC1.5 turn out when `O=C(Nc1ccccc1-c1nc2cccnc2s1)c1cc(NC[C@@H](O)CO)nc(-c2ccccc2)n1` [Compound 106] was run?
**A.** Its EC1.5 is “A′ (EC1.5<250 nM)”.

**Q.** For `O=C(Nc1ccccc1-c1nc2cccnc2s1)c1cc(OC[C@H](O)CO)nc(-c2ccccc2)n1` [Compound 107], which EC1.5 is on record?
**A.** The EC1.5 was “A (EC1.5≧250 nM and ≦1 uM)”.

**Q.** For `O=C(Nc1ccccc1-c1nc2cccnc2s1)c1cc(OC[C@@H](O)CO)nc(-c2ccccc2)n1` [Compound 108], which EC1.5 is on record?
**A.** The EC1.5 was “A′ (EC1.5<250 nM)”.

**Q.** With `O=C(Nc1ccccc1-c1nc2cccnc2s1)c1cc(NCC2CCCNC2)nc(-c2ccccc2)n1` (stereo not shown) [Compound 109] as the compound, how does the EC1.5 read?
**A.** Its EC1.5 is “A′ (EC1.5<250 nM)”.

**Q.** For `CN(C)CCNc1cc(C(=O)Nc2ccccc2-c2nc3cccnc3s2)nc(-c2ccccc2)c1` [Compound 110], which EC1.5 is on record?
**A.** Its EC1.5 is “A′ (EC1.5<250 nM)”.

**Q.** Which EC1.5 does the source give for `Cc1ccc(-c2nc(NCCN(C)C)cc(C(=O)Nc3ccccc3-c3nc4cccnc4s3)n2)cc1` [Compound 111] here?
**A.** Its EC1.5 is “A′ (EC1.5<250 nM)”.

**Q.** How did the EC1.5 turn out when `Cc1cccc(-c2nc(NCCN(C)C)cc(C(=O)Nc3ccccc3-c3nc4cccnc4s3)n2)c1` [Compound 112] was run?
**A.** The EC1.5 was “A′ (EC1.5<250 nM)”.

**Q.** For `O=C(Nc1ccccc1-c1nc2cccnc2s1)c1cc(NC2CCN(Cc3ccccc3)CC2)nc(-c2ccccc2)n1` [Compound 113], which EC1.5 is on record?
**A.** The EC1.5 was “A (EC1.5≧250 nM and ≦1 uM)”.

**Q.** `CC(C)N1CCC(Nc2cc(C(=O)Nc3ccccc3-c3nc4cccnc4s3)nc(-c3ccccc3)n2)CC1` [Compound 114] was tested. Which EC1.5 did it give?
**A.** Its EC1.5 is “A′ (EC1.5<250 nM)”.
